{"source": "patent US6734163B2", "about": "“Compositions and methods for inhibiting cellular proliferation” (EntreMed, Inc., priority 1997, dated 2004)", "system": "human umbilical vein endothelial (HUVE) cells", "assay": "bFGF-induced proliferation of HUVE cells (uridine incorporation)", "type": "cell-based", "conditions": "for antiproliferative activity, plasma TFPI compared with HepG2 TFPI: HUVE cell proliferation assay, FIG. 4; for Effect on Proliferation: bFGF 10 ng/ml, 48 hours, HUVE cells", "description": "Proliferation assays familiar to those skilled in the art using human umbilical vein endothelial (HUVE) cells were used to determine the effect of TFPI on bFGF-induced proliferation of human umbilical vein endothelial cells.\nThe proliferation assay involved the routine culturing of human umbilical vein endothelial (HUVE) cells to confluency in EGM media. The cells were trypsinized and plated in a 96-well plate at 5000 cells per well per 100 μL EBM media. The cells were allowed to adhere to the plate for at least 2 hours. Next, bFGF at 10 ng/ml and TFPI at various concentrations were added to the wells. The cells were cultured for 48 hours after which cell proliferation was determined using a standard uridine incorporation method.\nProliferation assays using HUVE cells, as described in Example 1, were used to determine the effect of heparin on TFPI inhibition of bFGF-induced proliferation. The purpose of this study was to determine whether heparin was able to neutralize the antiproliferative activity of TFPI.\nTFPI was pre-incubated with equimolar concentrations of heparin and with concentrations of heparin that were five-fold in excess of the concentration of TFPI. The results are summarized below and are presented graphically in FIGS. 5a and 5b.\nCell proliferation assays, as described in Example 1, were conducted to determine the relative potency of native TFPI versus recombinant TFPI.\nCell proliferation assays, as described in Example 1, were conducted using full length recombinant TFPI, Platelet Factor 4 (PF-4), and recombinant Kringle 1-3 of Angiostatin™ peptide. Both PF-4 and Angiostatin™ peptide are known endogenous inhibitors of angiogenesis. PF-4 is a protein involved in the blood coagulation cascade and is referenced as an inhibitor of angiogenesis by Maione, T. et al. in the article “Inhibition of Angiogenesis by Recombinant Human Platelet Factor-4 and Related Peptides” Science 247:77 (1990). Angiostatin is a fragment of plasminogen and its inhibitory effect on angiogenesis is described by Cao, Y. et al. in the article “Kringle Domains of Human Angiostatin” J. Biol. Chem. 271:1 (1996).\nPF-4 and TFPI were tested for inhibition of human umbilical vein endothelial cell (HUVEC) proliferation. Angiostatin™ peptide was tested for the inhibition of bovine capillary endothelial (BCE) proliferation.\nCell proliferation assays, as described above in Example 1, were conducted using fragments of recombinant TFPI containing the following domains: Kunitz-1, Kunitz-2, or Kunitz-3.", "key": {"[1]": {"conditions": "Example 3, native versus recombinant TFPI, read-out: Fifty percent inhibition of the bFGF-induced proliferation of HUVE cells"}}, "note": "“Also recorded” adds a separate entry of the source. Read-outs that look alike come from different tables or passages of the source."}
{"substance": "Purified From HepG2 cells: TFPI purified from HepG2 cells containing full length and carboxyl-terminal lacking molecules", "values": [{"measurement": "antiproliferative activity, plasma TFPI compared with HepG2 TFPI", "value": "comparable activities"}, {"measurement": "Effect on Proliferation", "value": "Inhibition of Proliferation"}]}
{"substance": "TFPI: tissue factor pathway inhibitor, source not specified in the heparin experiment (SEQ ID No. 1)", "values": [{"measurement": "Antiproliferative Activity of TFPI (effect of heparin)", "setting": "TFPI pre-incubated with equimolar heparin", "value": "did not lose its antiproliferative activity; also recorded: No Effect"}, {"measurement": "Antiproliferative Activity of TFPI (effect of heparin)", "setting": "TFPI pre-incubated with heparin five-fold in excess of TFPI", "value": "did not lose its antiproliferative activity; also recorded: No Effect"}]}
{"substance": "Purified From Human Plasma: full length, fully glycosylated TFPI (molecular weight 43,000) purified from human plasma", "values": [{"measurement": "IC50", "setting": "[1]", "value": 75, "unit": "nM"}, {"measurement": "antiproliferative activity, plasma TFPI compared with HepG2 TFPI", "value": "comparable activities"}, {"measurement": "Effect on Proliferation", "value": "Inhibition of Proliferation"}]}
{"substance": "Recombinant, Full Length: full length, partially glycosylated TFPI (molecular weight 35,000) produced recombinantly", "values": [{"measurement": "IC50", "setting": "[1]", "value": 150, "unit": "nM"}, {"measurement": "potency relative to recombinant PF-4", "setting": "HUVE cell proliferation, 50% inhibition compared", "value": "approximately ten times more potent"}, {"measurement": "IC50", "setting": "HUVEC proliferation, Example 4 table, read-out: Concentration for 50% Inhibition", "value": "~125", "unit": "nM"}, {"measurement": "activity relative to recombinant Kringle 1-3 of angiostatin", "setting": "TFPI on HUVE cells versus Kringle 1-3 on BCE cells", "value": "more active"}, {"measurement": "Effect on Proliferation", "value": "Inhibition of Proliferation"}]}
{"substance": "PF-4: Platelet Factor 4, protein of the blood coagulation cascade, known endogenous inhibitor of angiogenesis [reference compound]", "values": [{"measurement": "IC50", "setting": "Example 4, read-out: concentration required for 50% inhibition of HUVE cell proliferation", "value": 1250, "unit": "nM"}]}
